“And” between values parts separate entries of the source, which are not always exact repeats. Equal entries are not always repeated.
Assays:
THP-1 cells = experiment: Host cell viability in pilot screening at 10 μM; format: cell-based, human; conditions: screening concentration 10 µM
Protocol: PMA-treated THP-1 human monocytic cells were seeded at 0.8 × 10^4 cells per well in a 384-well culture plate (Greiner Bio-One, Kremsmünster, Austria) in RPMI-1640 complete medium supplemented with 10% FBS. After 48 h of incubation at 37 °C in the presence of 5% CO2, the promastigotes of L. donovani that were incubated with lectin for 30 min at 28 °C were added to the cells at a parasite to cell ratio of 20:1. […] The negative control consisted of THP-1 infected with the parasite with only 0.5% DMSO. After 72 h, the cells that were infected and treated with the drug were washed with serum-free RPMI-1640 medium. The cells and parasites were stained using 5 μM DRAQ5 and 4% PFA. The images were acquired based on reading using an Operetta® automated microscope (PerkinElmer, Inc., Waltham, MA 02451 USA). They were further analyzed using Columbus^TM (PerkinElmer, Inc. Waltham, MA, USA) software to quantify parasite numbers, host cell numbers, and infection ratios. In brief, large-sized nucleus of host cells was first detected using Draq-5 (Thermo Fisher, Rockford, IL, USA) signal and the host cell boundary masking was performed using the low-intensity signals from cytosols (additional feature of Draq-5). Then the small-sized nucleus signal by Draq-5 was used to identify parasites within the area of masked host cell. […] The average IR value of the negative control wells was calculated as 0.53. […]

[1] = test system: intracellular L. donovani; experiment: Pilot high-content screening against intracellular L. donovani at 10 μM; format: cell-based; conditions: screening concentration 10 µM
Protocol: PMA-treated THP-1 human monocytic cells were seeded at 0.8 × 10^4 cells per well in a 384-well culture plate (Greiner Bio-One, Kremsmünster, Austria) in RPMI-1640 complete medium supplemented with 10% FBS. After 48 h of incubation at 37 °C in the presence of 5% CO2, the promastigotes of L. donovani that were incubated with lectin for 30 min at 28 °C were added to the cells at a parasite to cell ratio of 20:1. […] The negative control consisted of THP-1 infected with the parasite with only 0.5% DMSO. After 72 h, the cells that were infected and treated with the drug were washed with serum-free RPMI-1640 medium. The cells and parasites were stained using 5 μM DRAQ5 and 4% PFA. The images were acquired based on reading using an Operetta® automated microscope (PerkinElmer, Inc., Waltham, MA 02451 USA). They were further analyzed using Columbus^TM (PerkinElmer, Inc. Waltham, MA, USA) software to quantify parasite numbers, host cell numbers, and infection ratios. In brief, large-sized nucleus of host cells was first detected using Draq-5 (Thermo Fisher, Rockford, IL, USA) signal and the host cell boundary masking was performed using the low-intensity signals from cytosols (additional feature of Draq-5). Then the small-sized nucleus signal by Draq-5 was used to identify parasites within the area of masked host cell. Infection ratio (IR) was determined with the value of the number of infected cells divided by total number of cells and the average number of parasites per macrophage (P/φ) was defined by the value of the number of parasites divided by the number of infected cells in the acquired image. The average IR value of the negative control wells was calculated as 0.53. Compounds selected based on the screening results were further assessed in a dose-dilution manner (two-fold serial dilution for 20 points starting from 100 μM) using the same method.

[2] = Pilot toxicity study in mice; format: in vivo; conditions: 5 mg/kg dose
Protocol: For this proof of concept in vivo study, L. donovani infected BALB/c model was used to evaluate the ability of compound to reduce parasites in liver. […] Using the same dosing scheme, the efficacies of the compounds were evaluated in VL mouse model.

L. donovani = experiment: VL mouse model (L. donovani-infected BALB/c mice); format: in vivo; conditions: miltefosine 30, Torin2 15, dactolisib 50, NVP-BGT226 5 mg/kg; for Inhibition of L. donovani In Vivo (%) (Mean ± SD): liver parasite burden vs vehicle, per os 5 days; for LDU in the Liver (Mean ± SD): once daily per os for 5 days from day 7 post-infection
Protocol: The highest dose for each compound without showing adverse effects was selected based on literature search. The vehicle for the compounds was 5% N-methylpyrrolidone, 15% polyvinylpyrrolidone, and 80% deionized water. Drug dosing solutions were freshly prepared each day. All drugs were administered once daily for 5 days via the per os route. On day 16 post-infection, all animals were humanely euthanized and assessed microscopically using Giemsa-stained liver imprints. Parasite burdens were measured by counting (blinded to treatment) the number of amastigotes per 1000 cell nuclei and multiplying this number by the liver weight (mg) (Leishman-Donovan Unit: LDU). The LDU values for the drug-treated samples were compared to those of the untreated samples, and the percent inhibition values were calculated.

[3] = test system: T. b. brucei Lister 427 BSF; experiment: T. b. brucei Lister 427 bloodstream form growth inhibition (resazurin); format: cell-based; conditions: Trypanosoma brucei, 72 h, 3 days exposure, read-out: T. brucei Lister 427 BSF EC50 ± SD
Protocol: (§1) L. donovani promastigote and T. b. brucei Lister 427 BSF growth inhibition were assayed by measuring the conversion of resazurin to resorufin. The assays were performed in 384-well plates that were seeded with L. donovani promastigotes or T. brucei 427 BSF (5 × 10^4 cells per well). After seeding, the parasites were exposed to the compounds for 3 days. Resazurin sodium salt (200 μM; R7017; Sigma-Aldrich, St. Louis, MO, USA) was then added, and the samples were incubated for 5 h. After incubation, the parasites were fixed using 4% paraformaldehyde, and the plates were analyzed using a Victor3^TM plate reader (PerkinElmer, Inc., Waltham, MA, USA) at 590 nm (emission) and 530 nm (excitation). […] Pentamidine was used for the T. b. brucei Lister 427 BSF growth inhibition assay.
(§2) All of the half maximal effective concentrations (EC50) and the half maximal cytotoxic concentrations (CC50) values were calculated using two independent experiments. The dose-response curves were fitted using GraphPad Prism 6 software (GraphPad Software, San Diego, CA, USA) by using a sigmoidal dose-response equation with a variable hill slope option.

T. b. brucei Lister 427 = experiment: HAT mouse model (acute T. b. brucei Lister 427 infection of BALB/c mice); format: in vivo; conditions: for parasitemia in T. brucei-infected mice: five consecutive days of treatment, Torin2 15 mg/kg, NVP-BGT226 5 mg/kg
Protocol: BALB/c mice were infected with T. b. brucei Lister 427 (4 × 10^4 cells) by intraperitoneal (i.p.) injection. […] Parasitemia was evaluated daily for 2 weeks by blood collection from the mouse tail vein, and survival was monitored for 1 month. Mice showing impaired health status and/or with a parasite load > 10^8 cells per mL of blood were euthanized.

[4] = Host cell cytotoxicity (CC50) in infected THP-1 cells, dose-dilution assay; format: cell-based; conditions: human, infected THP-1 host cells, read-out: THP-1 Cell CC50 ± SD
Protocol: (§3) PMA-treated THP-1 human monocytic cells were seeded at 0.8 × 10^4 cells per well in a 384-well culture plate (Greiner Bio-One, Kremsmünster, Austria) in RPMI-1640 complete medium supplemented with 10% FBS. After 48 h of incubation at 37 °C in the presence of 5% CO2, the promastigotes of L. donovani that were incubated with lectin for 30 min at 28 °C were added to the cells at a parasite to cell ratio of 20:1. […] The negative control consisted of THP-1 infected with the parasite with only 0.5% DMSO. After 72 h, the cells that were infected and treated with the drug were washed with serum-free RPMI-1640 medium. The cells and parasites were stained using 5 μM DRAQ5 and 4% PFA. The images were acquired based on reading using an Operetta® automated microscope (PerkinElmer, Inc., Waltham, MA 02451 USA). They were further analyzed using Columbus^TM (PerkinElmer, Inc. Waltham, MA, USA) software to quantify parasite numbers, host cell numbers, and infection ratios. In brief, large-sized nucleus of host cells was first detected using Draq-5 (Thermo Fisher, Rockford, IL, USA) signal and the host cell boundary masking was performed using the low-intensity signals from cytosols (additional feature of Draq-5). Then the small-sized nucleus signal by Draq-5 was used to identify parasites within the area of masked host cell. Infection ratio (IR) was determined with the value of the number of infected cells divided by total number of cells and the average number of parasites per macrophage (P/φ) was defined by the value of the number of parasites divided by the number of infected cells in the acquired image.
as §2

[5] = test system: L. donovani promastigotes; experiment: L. donovani promastigote growth inhibition (resazurin); format: cell-based; conditions: Leishmania donovani, 72 h, 3 days exposure, read-out: L. donovani Promastigote EC50 ± SD
Protocol: as §1, §2

[6] = test system: intracellular L. donovani; experiment: Intracellular L. donovani in THP-1 cells, dose-dilution high-content imaging assay; format: cell-based; conditions: for EC50: Leishmania donovani, THP-1 cells infected with L. donovani, 72 h, duplicate measurements, read-out: Intracellular L. donovani EC50 ± SD
Protocol: as §3, §2

Row | Compound | toxicity against the host cell in screening (THP-1 cells) | inhibition of intracellular parasite survival in screening [1] | toxicity in vivo [2] | Inhibition of L. donovani In Vivo (%) (Mean ± SD) (L. donovani; 5 mg/kg) | LDU in the Liver (Mean ± SD) (L. donovani) | EC50 [3] | mice surviving during 14 days post-infection (T. b. brucei Lister 427; 5 mg/kg per os for 5 days) | mice surviving more than 25 days without parasitemia (T. b. brucei Lister 427; 5 mg/kg per os for 5 days) | delay in survival over the Torin2-treated group (T. b. brucei Lister 427; NVP-BGT226 5 mg/kg vs Torin2 15 mg/kg) | parasitemia in T. brucei-infected mice (T. b. brucei Lister 427) | CC50 at 72 h [4] | EC50 [5] | EC50 [6] | Selectivity Index (SI) ([6]; SI = THP-1 CC50/Intracellular L. donovani EC50) | Inhibition of L. donovani In Vivo (%) (Mean ± SD) (L. donovani) | mice surviving at least 13 days after infection (T. b. brucei Lister 427; 15 mg/kg per os for 5 days)
1 | COc1ncc(-c2ccc3nccc(-c4ccnnc4)c3c2)cc1NS(=O)(=O)c1ccc(F)cc1F [GSK2126458] | some toxicity against the host cell | found active | – | – | – | – | – | – | – | – | – | – | – | – | – | –
2 | COc1ccc(-c2ccc3ncc4c(c3c2)n(-c2ccc(N3CCNCC3)c(C(F)(F)F)c2)c(=O)n4C)cn1 [NVP-BGT226] | – | – | no sign of toxicity was observed | 54% and 54 ± 3.18% | 516 ± 36 LDU | 0.054 ± 0.003 nM | 80% | 20% | 1 to 2 days | reduced to under the limits of detection | 2660 ± 460 nM | 9 ± 1 nM | 140 ± 20 nM | 19 | – | –
3 | Nc1ccc(-c2ccc3ncc4ccc(=O)n(-c5cccc(C(F)(F)F)c5)c4c3c2)cn1 [Torin2, 9-(6-Aminopyridin-3-yl)-1-(3-(trifluoromethyl)phenyl)benzo[h][1,6]naphthyridin-2(1H)-one] | – | – | – | – | 735 ± 66 LDU | 110 ± 10 nM | – | – | – | parasitemia was observed still by day 5 | – | 30 ± 4 nM | 250 ± 30 nM | – | 35% and 35 ± 5.81% | 80%
